Literature values, collected in PMC7395068, “The evolution of strategies to minimise the risk of human drug-induced liver injury (DILI) in drug discovery and development” (Archives of Toxicology, 2020).
Read-outs that look alike come from different tables or passages of the source. Where a SMILES comes first, the peptide text is derived from it. [ ]: non-standard residue; d: D form. The star is where a group is joined. dPhe(4-NHCONH2) = NC(=O)Nc1ccc(C[C@@H](N)C(=O)O)cc1; Dihydroorotyl(S) = O=C1C[C@@H](C(=O)*)NC(=O)N1; dPhe(4-Cl) = N[C@H](Cc1ccc(Cl)cc1)C(=O)O; Phe(4-NH2) = Nc1ccc(C[C@H](N)C(=O)O)cc1; d2Nal = N[C@H](Cc1ccc2ccccc2c1)C(=O)O; Lys(iPr) = CC(C)NCCCC[C@H](N)C(=O)O; dCit = NC(=O)NCCC[C@@H](N)C(=O)O; d3Pal = N[C@H](Cc1cccnc1)C(=O)O

Settings: cited from earlier work
[1] = LTKB DILIrank category, ref Chen 2016
[2] = binary DILI call, ref Chen 2016
[3] = binary in vivo human DILI call, ref Chen 2016
[4] = human DILI, LTKB DILIrank category, ref Chen 2016

CC[C@H](C)C[C@H](C)CCCCCCCCC(=O)N[C@H]1C[C@@H](O)[C@@H](NCCN)NC(=O)[C@@H]2[C@@H](O)CCN2C(=O)[C@H]([C@H](O)CCN)NC(=O)[C@H]([C@H](O)[C@@H](O)c2ccc(O)cc2)NC(=O)[C@@H]2C[C@@H](O)CN2C(=O)[C@H]([C@@H](C)O)NC1=O [caspofungin]
DILI severity category [1]: Ambiguous DILI-concern | DILI +VE (5-8), DILI -VE (-4) [2]: -VE

N[C@@H](C(=O)N[C@@H]1C(=O)N2C(C(=O)O)=C(Cl)CS[C@H]12)c1ccccc1 [cefaclor]
DILI severity category [1]: vLess-DILI-Concern

CC1=C(C(=O)O)N2C(=O)[C@@H](NC(=O)[C@H](N)c3ccc(O)cc3)[C@H]2SC1 [cefadroxil]
DILI severity category [1]: vLess-DILI-Concern

Cc1nnc(SCC2=C(C(=O)O)N3C(=O)[C@@H](NC(=O)Cn4cnnn4)[C@H]3SC2)s1 [cefazolin]
DILI +VE (5-8), DILI -VE (-4) (in vivo): +VE | DILI severity category (in vivo): vLess-DILI-Concern

C=CC1=C(C(=O)O)N2C(=O)[C@@H](NC(=O)/C(=N\O)c3csc(N)n3)[C@H]2SC1 [cefdinir]
DILI severity category [1]: vLess-DILI-Concern

CO/N=C(\C(=O)N[C@@H]1C(=O)N2C(C(=O)O)=C(/C=C\c3scnc3C)CS[C@H]12)c1csc(N)n1 [cefditoren]
DILI severity category [1]: Ambiguous DILI-concern | DILI +VE (5-8), DILI -VE (-4) [2]: -VE

CO/N=C(\C(=O)N[C@@H]1C(=O)N2C(C(=O)[O-])=C(C[N+]3(C)CCCC3)CS[C@H]12)c1csc(N)n1 [cefepime]
DILI +VE (5-8), DILI -VE (-4) (in vivo): +VE | DILI severity category (in vivo): vLess-DILI-Concern

CO[C@@]1(NC(=O)Cc2cccs2)C(=O)N2C(C(=O)O)=C(COC(N)=O)CS[C@@H]21 [cefoxitin]
DILI severity category [1]: Ambiguous DILI-concern | DILI +VE (5-8), DILI -VE (-4) [2]: -VE

COCC1=C(C(=O)O)N2C(=O)[C@@H](NC(=O)/C(=N\OC)c3csc(N)n3)[C@H]2SC1 [cefpodoxime]
DILI severity category [1]: Ambiguous DILI-concern | DILI +VE (5-8), DILI -VE (-4) [2]: -VE

CC=CC1=C(C(=O)O)N2C(=O)[C@@H](NC(=O)[C@H](N)c3ccc(O)cc3)[C@H]2SC1 [cefprozil]
DILI +VE (5-8), DILI -VE (-4) (in vivo): +VE | DILI severity category (in vivo): vLess-DILI-Concern

Nc1nc(/C(=C/CC(=O)O)C(=O)N[C@@H]2C(=O)N3C(C(=O)O)=CCS[C@H]23)cs1 [ceftibuten]
DILI severity category [1]: Ambiguous DILI-concern | DILI +VE (5-8), DILI -VE (-4) [2]: -VE

CO/N=C(\C(=O)N[C@@H]1C(=O)N2C(C(=O)O)=CCS[C@H]12)c1csc(N)n1 [ceftizoxime]
DILI severity category [1]: Ambiguous DILI-concern | DILI +VE (5-8), DILI -VE (-4) [2]: -VE

CO/N=C(\C(=O)N[C@@H]1C(=O)N2C(C(=O)O)=C(COC(N)=O)CS[C@H]12)c1ccco1 [cefuroxime]
DILI severity category [1]: vLess-DILI-Concern

CC1=C(C(=O)O)N2C(=O)[C@@H](NC(=O)[C@H](N)C3=CCC=CC3)[C@H]2SC1 [cephradine]
DILI severity category [1]: Ambiguous DILI-concern | DILI +VE (5-8), DILI -VE (-4) [2]: -VE

CC(=O)N[C@H](Cc1ccc2ccccc2c1)C(=O)N[C@H](Cc1ccc(Cl)cc1)C(=O)N[C@H](Cc1cccnc1)C(=O)N[C@@H](CO)C(=O)N[C@@H](Cc1ccc(O)cc1)C(=O)N[C@H](CCCNC(N)=O)C(=O)N[C@@H](CC(C)C)C(=O)N[C@@H](CCCNC(=N)N)C(=O)N1CCC[C@H]1C(=O)N[C@H](C)C(N)=O [cetrorelix] (Ac-[d2Nal][dPhe(4-Cl)][d3Pal]SY[dCit]LRP[dA]-NH2)
DILI severity category [1]: Ambiguous DILI-concern | DILI +VE (5-8), DILI -VE (-4) [2]: -VE

CC1OC2(CS1)CN1CCC2CC1 (centres unmarked) [cevimeline]
DILI severity category [1]: Ambiguous DILI-concern | DILI +VE (5-8), DILI -VE (-4) [2]: -VE

CN1CCN(C(c2ccccc2)c2ccc(Cl)cc2)CC1 (centres unmarked) [chlorcyclizine]
DILI severity category [1]: vLess-DILI-Concern

CNC1=Nc2ccc(Cl)cc2C(c2ccccc2)=[N+]([O-])C1 [chlordiazepoxide]
DILI +VE (5-8), DILI -VE (-4) (in vivo): +VE | DILI severity category (in vivo): vLess-DILI-Concern

CN1C(=O)CCS(=O)(=O)C1c1ccc(Cl)cc1 (centres unmarked) [chlormezanone]
DILI +VE (5-8), DILI -VE (-4) (in vivo): +VE | DILI severity category (in vivo): vMost-DILI-Concern

NS(=O)(=O)c1cc(C2(O)NC(=O)c3ccccc32)ccc1Cl (centres unmarked) [chlorthalidone]
DILI severity category [1]: Ambiguous DILI-concern | DILI +VE (5-8), DILI -VE (-4) [2]: -VE

Nc1ccn(C[C@@H](CO)OCP(=O)(O)O)c(=O)n1 [cidofovir]
DILI severity category [1]: Ambiguous DILI-concern | DILI +VE (5-8), DILI -VE (-4) [2]: -VE

C[C@@H](NCCCc1cccc(C(F)(F)F)c1)c1cccc2ccccc12 [cinacalcet]
DILI severity category [1]: vNo-DILI-Concern | DILI +VE (5-8), DILI -VE (-4) [2]: -VE

COc1ccc(C[C@@H]2c3cc(OC)c(OC)cc3CC[N@+]2(C)CCC(=O)OCCCCCOC(=O)CC[N@@+]2(C)CCc3cc(OC)c(OC)cc3[C@H]2Cc2ccc(OC)c(OC)c2)cc1OC [cisatracurium besylate]
DILI severity category [1]: vNo-DILI-Concern | DILI +VE (5-8), DILI -VE (-4) [2]: -VE

CCC[C@@H]1C[C@@H](C(=O)N[C@@H]([C@H]2O[C@H](SC)[C@H](OP(=O)(O)O)[C@@H](O)[C@H]2O)[C@H](C)Cl)N(C)C1 [clindamycin-2-phosphate]
DILI severity category (in vivo): Ambiguous DILI-concern

CCC[C@@H]1C[C@@H](C(=O)N[C@@H]([C@H]2O[C@H](SC)[C@H](O)[C@@H](O)[C@H]2O)[C@H](C)Cl)N(C)C1 [clindamycin]
DILI severity category (in vivo): vLess-DILI-Concern

Nc1nc(Cl)nc2c1ncn2[C@@H]1O[C@H](CO)[C@@H](O)[C@@H]1F [clofarabine]
DILI severity category [1]: Ambiguous DILI-concern | DILI +VE (5-8), DILI -VE (-4) [2]: -VE

CN(C)CCCC1c2ccccc2Nc2ccc(Cl)cc21 (centres unmarked) [clomacran]
DILI severity category [1]: vMost-DILI-Concern

COc1ccc2c(C(=O)c3ccc(Cl)cc3)c(C)n(CC(=O)O)c2c1 [clometacin]
DILI severity category [1]: vMost-DILI-Concern

CCN(CC)CCOc1ccc(C(=C(Cl)c2ccccc2)c2ccccc2)cc1 [clomiphene]
DILI severity category [1]: vLess-DILI-Concern

COC(=O)[C@H](c1ccccc1Cl)N1CCc2sccc2C1 [clopidogrel]
DILI severity category [1]: vLess-DILI-Concern

O=C(O)C1N=C(c2ccccc2)c2cc(Cl)ccc2NC1=O (centres unmarked) [clorazepate]
DILI severity category [1]: Ambiguous DILI-concern | DILI +VE (5-8), DILI -VE (-4) [2]: -VE

COc1ccc2c3c1O[C@H]1[C@@H](O)C=C[C@H]4[C@@H](C2)N(C)CC[C@@]341 [codeine]
DILI +VE (5-8), DILI -VE (-4) (in vivo): -VE | DILI severity category (in vivo): vNo-DILI-Concern

CC(=O)OCC(=O)[C@@]1(O)CC[C@H]2[C@@H]3CCC4=CC(=O)CC[C@]4(C)[C@H]3C(=O)C[C@@]21C [cortisone acetate]
DILI +VE (5-8), DILI -VE (-4) [3]: -VE | DILI severity category [4]: vNo-DILI-Concern

[Cl][Cu][Cl] [cupric chloride]
DILI +VE (5-8), DILI -VE (-4) (in vivo): -VE | DILI severity category (in vivo): vNo-DILI-Concern

NCCS [cysteamine]
DILI +VE (5-8), DILI -VE (-4) [3]: -VE | DILI severity category [4]: Ambiguous DILI-concern

CCCCCCCCCC(=O)N[C@@H](Cc1c[nH]c2ccccc12)C(=O)N[C@H](CC(N)=O)C(=O)N[C@@H](CC(=O)O)C(=O)N[C@@H]1C(=O)NCC(=O)N[C@@H](CCCN)C(=O)N[C@@H](CC(=O)O)C(=O)N[C@H](C)C(=O)N[C@@H](CC(=O)O)C(=O)NCC(=O)N[C@H](CO)C(=O)N[C@@H]([C@H](C)CC(=O)O)C(=O)N[C@@H](CC(=O)c2ccccc2N)C(=O)O[C@@H]1C [daptomycin]
DILI +VE (5-8), DILI -VE (-4) [3]: +VE | DILI severity category [4]: vLess-DILI-Concern

NC(=O)C(c1ccccc1)(c1ccccc1)[C@@H]1CCN(CCc2ccc3c(c2)CCO3)C1 [darifenacin]
DILI +VE (5-8), DILI -VE (-4) [3]: -VE | DILI severity category [4]: vNo-DILI-Concern

Nc1ncn([C@H]2C[C@H](O)[C@@H](CO)O2)c(=O)n1 [decitabine]
DILI +VE (5-8), DILI -VE (-4) [3]: -VE | DILI severity category [4]: Ambiguous DILI-concern

CC(=O)N[C@H](Cc1ccc2ccccc2c1)C(=O)N[C@H](Cc1ccc(Cl)cc1)C(=O)N[C@H](Cc1cccnc1)C(=O)N[C@@H](CO)C(=O)N[C@@H](Cc1ccc(NC(=O)[C@@H]2CC(=O)NC(=O)N2)cc1)C(=O)N[C@H](Cc1ccc(NC(N)=O)cc1)C(=O)N[C@@H](CC(C)C)C(=O)N[C@@H](CCCCNC(C)C)C(=O)N1CCC[C@H]1C(=O)N[C@H](C)C(N)=O [degarelix] (Ac-[d2Nal][dPhe(4-Cl)][d3Pal]S[Phe(4-NH2)](Dihydroorotyl(S))[dPhe(4-NHCONH2)]L[Lys(iPr)]P[dA]-NH2)
DILI +VE (5-8), DILI -VE (-4) [3]: -VE | DILI severity category [4]: Ambiguous DILI-concern

CC(C)Nc1cccnc1N1CCN(C(=O)c2cc3cc(NS(C)(=O)=O)ccc3[nH]2)CC1 [delavirdine]
DILI +VE (5-8), DILI -VE (-4) [3]: -VE | DILI severity category [4]: Ambiguous DILI-concern

CN(C)CC(c1ccc(O)cc1)C1(O)CCCCC1 (centres unmarked) [desvenlafaxine]
DILI +VE (5-8), DILI -VE (-4) [3]: +VE | DILI severity category [4]: vLess-DILI-Concern

CN(C)CC[C@@H](c1ccc(Cl)cc1)c1ccccn1 [dexchlorpheniramine]
DILI +VE (5-8), DILI -VE (-4) [3]: -VE | DILI severity category [4]: vNo-DILI-Concern

Cc1c(OCC(F)(F)F)ccnc1C[S@@+]([O-])c1nc2ccccc2[nH]1 [dexlansoprazole]
DILI +VE (5-8), DILI -VE (-4) [3]: +VE | DILI severity category [4]: vLess-DILI-Concern

Cc1cccc([C@H](C)c2cnc[nH]2)c1C [dexmedetomidine]
DILI +VE (5-8), DILI -VE (-4) [3]: -VE | DILI severity category [4]: Ambiguous DILI-concern

COC(=O)[C@H](c1ccccc1)[C@H]1CCCCN1 [dexmethylphenidate]
DILI +VE (5-8), DILI -VE (-4) (in vivo): +VE | DILI severity category (in vivo): vLess-DILI-Concern

CC(C)(CO)[C@@H](O)C(=O)NCCCO [dexpanthenol]
DILI +VE (5-8), DILI -VE (-4) (in vivo): -VE | DILI severity category (in vivo): vNo-DILI-Concern

C[C@@H](CN1CC(=O)NC(=O)C1)N1CC(=O)NC(=O)C1 [dexrazoxane]
DILI +VE (5-8), DILI -VE (-4) [3]: -VE | DILI severity category [4]: Ambiguous DILI-concern

C[C@H](N)Cc1ccccc1 [dextroamphetamine]
DILI +VE (5-8), DILI -VE (-4) (in vivo): -VE | DILI severity category (in vivo): vNo-DILI-Concern

NS(=O)(=O)c1cc(Cl)c(Cl)c(S(N)(=O)=O)c1 [dichlorphenamide]
DILI +VE (5-8), DILI -VE (-4) [3]: -VE | DILI severity category [4]: vNo-DILI-Concern

CCN(CC)CCOC(=O)C1(C2CCCCC2)CCCCC1 [dicyclomine]
DILI +VE (5-8), DILI -VE (-4) [3]: -VE | DILI severity category [4]: vNo-DILI-Concern
